ChEMBL document CHEMBL5537158, “Polymyxins with Potent Antibacterial Activity against Colistin-Resistant Pathogens: Fine-Tuning Hydrophobicity with Unnatural Amino Acids” (J Med Chem, 2024)
Converted amounts (≈) assume the structure as drawn. Positions of bridges follow the written chain, without caps; N, C: chain ends. Non-standard residues stand in square brackets, D forms with d. Residues, ends and D or L forms follow the SMILES beside them. *: point of attachment. Phe(4-CF3) = N[C@@H](Cc1ccc(C(F)(F)F)cc1)C(=O)O; dPhe(4-CF3) = N[C@H](Cc1ccc(C(F)(F)F)cc1)C(=O)O; dPhe(F5) = N[C@H](Cc1c(F)c(F)c(F)c(F)c1F)C(=O)O; Phe(4-Cl) = N[C@@H](Cc1ccc(Cl)cc1)C(=O)O; Phe(3-F) = N[C@@H](Cc1cccc(F)c1)C(=O)O; Phe(4-F) = N[C@@H](Cc1ccc(F)cc1)C(=O)O; dPhe(3-F) = N[C@H](Cc1cccc(F)c1)C(=O)O; dPhe(4-F) = N[C@H](Cc1ccc(F)cc1)C(=O)O; Phe(2-F) = N[C@@H](Cc1ccccc1F)C(=O)O; hhPhe = N[C@@H](CCCc1ccccc1)C(=O)O; Octanoyl = CCCCCCCC(=O)*; Dab = NCC[C@H](N)C(=O)O

Columns and labels:
Assay type in all cases: functional
Escherichia coli [1] = assay: Antibacterial activity against Escherichia coli ATCC 25922 assessed as bacterial growth inhibition incubated for 20 hrs by broth microdilution method
Escherichia coli [2] = assay: Antimicrobial activity against […] Escherichia coli harboring mcr-1 assessed as bacterial growth inhibition incubated for 20 hrs by broth microdilution method
Klebsiella pneumoniae = assay: Antimicrobial activity against Klebsiella pneumoniae ATCC 13883 assessed as bacterial growth inhibition incubated for 20 hrs by broth microdilution method
Acinetobacter baumannii [3] = assay: Antimicrobial activity against Acinetobacter baumannii ATCC 19606 assessed as bacterial growth inhibition incubated for 20 hrs by broth microdilution method
Pseudomonas aeruginosa [4] = assay: Antimicrobial activity against colistin resistant Pseudomonas aeruginosa 7197/19 assessed as bacterial growth inhibition incubated for 20 hrs by broth microdilution method
Pseudomonas aeruginosa [5] = assay: Antimicrobial activity against Pseudomonas aeruginosa PAO1 assessed as bacterial growth inhibition incubated for 20 hrs by broth microdilution method
Acinetobacter baumannii [6] = assay: Antimicrobial activity against colistin resistant Acinetobacter baumannii ATCC 3658/17 assessed as bacterial growth inhibition incubated for 20 hrs by broth microdilution method

| Structure (SMILES) | MIC (Escherichia coli [1]) | MIC (Escherichia coli [2]) | MIC (Klebsiella pneumoniae) | MIC (Acinetobacter baumannii [3]) | MIC (Pseudomonas aeruginosa [4]) | MIC (Pseudomonas aeruginosa [5]) | MIC (Acinetobacter baumannii [6]) |
| --- | --- | --- | --- | --- | --- | --- | --- |
| CCCCCCCC(=O)N[C@@H](CCN)C(=O)N[C@H](C(=O)N[C@@H](CCN)C(=O)N[C@H]1CCNC(=O)[C@H]([C@@H](C)O)NC(=O)[C@H](CCN)NC(=O)[C@H](CCN)NC(=O)[C@H](Cc2ccccc2F)NC(=O)[C@@H](CC(C)C)NC(=O)[C@H](CCN)NC1=O)[C@@H](C)O (Octanoyl-[Dab]T[Dab][Dab][Dab][dL][Phe(2-F)][Dab][Dab]T; lactam 4-C) | 0.06 µg/mL (≈ 0.0497 µM) | 2 µg/mL (≈ 1.66 µM) | 4 µg/mL (≈ 3.31 µM) | 0.125 µg/mL (≈ 0.104 µM) | – | – | – |
| CCCCCCCC(=O)N[C@@H](CCN)C(=O)N[C@H](C(=O)N[C@@H](CCN)C(=O)N[C@H]1CCNC(=O)[C@H]([C@@H](C)O)NC(=O)[C@H](CCN)NC(=O)[C@H](CCN)NC(=O)[C@H](Cc2cccc(F)c2)NC(=O)[C@@H](CC(C)C)NC(=O)[C@H](CCN)NC1=O)[C@@H](C)O (Octanoyl-[Dab]T[Dab][Dab][Dab][dL][Phe(3-F)][Dab][Dab]T; lactam 4-C) | 0.25 µg/mL (≈ 0.207 µM) | 4 µg/mL (≈ 3.31 µM) | – | 0.25 µg/mL (≈ 0.207 µM) | 1 µg/mL (≈ 0.828 µM) | – | – |
| CCCCCCCC(=O)N[C@@H](CCN)C(=O)N[C@H](C(=O)N[C@@H](CCN)C(=O)N[C@H]1CCNC(=O)[C@H]([C@@H](C)O)NC(=O)[C@H](CCN)NC(=O)[C@H](CCN)NC(=O)[C@H](Cc2ccc(C(F)(F)F)cc2)NC(=O)[C@@H](CC(C)C)NC(=O)[C@H](CCN)NC1=O)[C@@H](C)O (Octanoyl-[Dab]T[Dab][Dab][Dab][dL][Phe(4-CF3)][Dab][Dab]T; lactam 4-C) | – | – | – | < 0.125 µg/mL | – | 0.25 µg/mL (≈ 0.199 µM) | 1 µg/mL (≈ 0.795 µM) |
| CCCCCCCC(=O)N[C@@H](CCN)C(=O)N[C@H](C(=O)N[C@@H](CCN)C(=O)N[C@H]1CCNC(=O)[C@H]([C@@H](C)O)NC(=O)[C@H](CCN)NC(=O)[C@H](CCN)NC(=O)[C@H](Cc2ccc(Cl)cc2)NC(=O)[C@@H](CC(C)C)NC(=O)[C@H](CCN)NC1=O)[C@@H](C)O (Octanoyl-[Dab]T[Dab][Dab][Dab][dL][Phe(4-Cl)][Dab][Dab]T; lactam 4-C) | – | – | – | 0.125 µg/mL (≈ 0.102 µM) | – | 0.25 µg/mL (≈ 0.204 µM) | 1 µg/mL (≈ 0.817 µM) |
| CCCCCCCC(=O)N[C@@H](CCN)C(=O)N[C@H](C(=O)N[C@@H](CCN)C(=O)N[C@H]1CCNC(=O)[C@H]([C@@H](C)O)NC(=O)[C@H](CCN)NC(=O)[C@H](CCN)NC(=O)[C@H](Cc2ccc(F)cc2)NC(=O)[C@@H](CC(C)C)NC(=O)[C@H](CCN)NC1=O)[C@@H](C)O (Octanoyl-[Dab]T[Dab][Dab][Dab][dL][Phe(4-F)][Dab][Dab]T; lactam 4-C) | – | 2 µg/mL (≈ 1.66 µM) | – | 0.25 µg/mL (≈ 0.207 µM) | 32 µg/mL (≈ 26.5 µM) | 0.125 µg/mL (≈ 0.104 µM) | 16 µg/mL (≈ 13.3 µM) |
| CCCCCCCC(=O)N[C@@H](CCN)C(=O)N[C@H](C(=O)N[C@@H](CCN)C(=O)N[C@H]1CCNC(=O)[C@H]([C@@H](C)O)NC(=O)[C@H](CCN)NC(=O)[C@H](CCN)NC(=O)[C@H](CCCc2ccccc2)NC(=O)[C@@H](CC(C)C)NC(=O)[C@H](CCN)NC1=O)[C@@H](C)O (Octanoyl-[Dab]T[Dab][Dab][Dab][dL][hhPhe][Dab][Dab]T; lactam 4-C) | 0.5 µg/mL (≈ 0.411 µM) | 1 µg/mL (≈ 0.821 µM) | – | < 0.125 µg/mL | 0.5 µg/mL (≈ 0.411 µM) | 0.5 µg/mL (≈ 0.411 µM) | 0.5 µg/mL (≈ 0.411 µM) |
| CCCCCCCC(=O)N[C@@H](CCN)C(=O)N[C@H](C(=O)N[C@@H](CCN)C(=O)N[C@H]1CCNC(=O)[C@H]([C@@H](C)O)NC(=O)[C@H](CCN)NC(=O)[C@H](CCN)NC(=O)[C@H](CC(C)C)NC(=O)[C@@H](Cc2cccc(F)c2)NC(=O)[C@H](CCN)NC1=O)[C@@H](C)O (Octanoyl-[Dab]T[Dab][Dab][Dab][dPhe(3-F)]L[Dab][Dab]T; lactam 4-C) | – | – | – | 0.25 µg/mL (≈ 0.207 µM) | – | 0.25 µg/mL (≈ 0.207 µM) | 4 µg/mL (≈ 3.31 µM) |
| CCCCCCCC(=O)N[C@@H](CCN)C(=O)N[C@H](C(=O)N[C@@H](CCN)C(=O)N[C@H]1CCNC(=O)[C@H]([C@@H](C)O)NC(=O)[C@H](CCN)NC(=O)[C@H](CCN)NC(=O)[C@H](CC(C)C)NC(=O)[C@@H](Cc2ccc(C(F)(F)F)cc2)NC(=O)[C@H](CCN)NC1=O)[C@@H](C)O (Octanoyl-[Dab]T[Dab][Dab][Dab][dPhe(4-CF3)]L[Dab][Dab]T; lactam 4-C) | 0.25 µg/mL (≈ 0.199 µM) | 1 µg/mL (≈ 0.795 µM) | – | 0.25 µg/mL (≈ 0.199 µM) | 0.25 µg/mL (≈ 0.199 µM) | – | 0.5 µg/mL (≈ 0.398 µM) |
| CCCCCCCC(=O)N[C@@H](CCN)C(=O)N[C@H](C(=O)N[C@@H](CCN)C(=O)N[C@H]1CCNC(=O)[C@H]([C@@H](C)O)NC(=O)[C@H](CCN)NC(=O)[C@H](CCN)NC(=O)[C@H](CC(C)C)NC(=O)[C@@H](Cc2ccc(F)cc2)NC(=O)[C@H](CCN)NC1=O)[C@@H](C)O (Octanoyl-[Dab]T[Dab][Dab][Dab][dPhe(4-F)]L[Dab][Dab]T; lactam 4-C) | 0.03 µg/mL (≈ 0.0248 µM) | 2 µg/mL (≈ 1.66 µM) | – | 0.06 µg/mL (≈ 0.0497 µM) | – | – | 0.25 µg/mL (≈ 0.207 µM) |
| CCCCCCCC(=O)N[C@@H](CCN)C(=O)N[C@H](C(=O)N[C@@H](CCN)C(=O)N[C@H]1CCNC(=O)[C@H]([C@@H](C)O)NC(=O)[C@H](CCN)NC(=O)[C@H](CCN)NC(=O)[C@H](CC(C)C)NC(=O)[C@@H](Cc2c(F)c(F)c(F)c(F)c2F)NC(=O)[C@H](CCN)NC1=O)[C@@H](C)O (Octanoyl-[Dab]T[Dab][Dab][Dab][dPhe(F5)]L[Dab][Dab]T; lactam 4-C) | < 0.125 µg/mL | – | – | < 0.125 µg/mL | – | 0.25 µg/mL (≈ 0.195 µM) | 0.5 µg/mL (≈ 0.391 µM) |
